# Assay results: patent US20090012085A1, “DOSAGE FORMS AND METHODS OF TREATMENT USING A TYROSINE KINASE INHIBITOR” (priority 2005, published 2009)
# Key:
# [1] = test system: solid tumor malignancies; experiment: Efficacy study in humans with solid tumors (RECIST, CT scan or MRI); format: in vivo, human; design: key to Response time and response: PR means partial response; CR means complete response
# Source text: Complete Response (CR), as used herein, unless otherwise indicated, refers to disappearance of all measurable and nonmeasurable lesions and no appearance of new lesions in a patient under the treatment of compound of formula 1, its pharmaceutically acceptable salt or solvate thereof, or a mixture thereof.
# Partial Response (PR), as used herein, unless other wise indicated, refers to at least a 30% decrease in the sum of the LDs of target lesions (taking as reference the baseline sum), without progression of nontarget lesions and no appearance of new lesions in a patient under treatment of compound of formula 1, its pharmaceutically acceptable salt or solvate thereof, or a mixture thereof.
# 50 patients were treated under a dose-escalating multicenter study of patients with solid tumor malignancies not amenable to conventional therapies. The types of tumor malignancies that the patients had included colorectal carcinoma, renal cell carcinoma, esophageal carcinoma, thymus carcinoma, mastocytosis, lung cancer and multiple endocrine neoplasia type II and other malignances. Patients were treated in cohorts of 6 with escalating QD (once per day) doses of a maleate salt of a compound of formula 1. Each study cycle was a five week cycle consisting of 4 weeks of treatment followed by 1 week of rest (4/1 schedule) or a five week cycle of continuous dosing without any rest period.
# Of these 50 patients, all patients were evaluated for efficacy determinations. Tumor size was measured at the end of each cycle of treatment. […] The partial response of four of these seven patients was confirmed by a repeat assessment four weeks later. The partial response of the other three patients has not been confirmed. The tumor shrinkage was determined by either CT scan or MRI as per RECIST criteria.
# [2] = test system: solid and hematopoietic cancer xenograft models; details: diverse preclinical solid and hematopoietic cancer xenograft models; cited from earlier work
smiles,measurement,setting,value
"Cc1[nH]c(/C=C2\C(=O)Nc3ccc(F)cc32)c(C)c1C(=O)NC[C@H](O)CN1CCOCC1 [compound 1, 5-[(Z)-(5-fluoro-2-oxo-1,2-dihydro-3H-indol-3-ylidene)methyl]-N-[(2S)-2-hydroxy-3-morpholin-4-ylpropyl]-2,4-dimethyl-1H-pyrrole-3-carboxamide]",Response time and response,"[1]; Patient 1, Renal cell carcinoma, 50 mg 4/1 QD, after 2nd cycle",PR
same,Response time and response,"[1]; Patient 1, Renal cell carcinoma, 50 mg 4/1 QD, at cycle 5",CR
same,Response time and response,"[1]; Patient 2, Biliary cell Carcinoma, 100 mg 4/1 QD, at cycle 5, confirmed","PR at cycle 5, confirmed."
same,Response time and response,"[1]; Patient 3, Thyroid carcinoma, 150 mg QD 4/1, after 1st cycle, confirmed","PR after 1st cycle,"
same,Response time and response,"[1]; Patient 4, Colon adenocarcinoma, 150 mg QD 4/1, after 1st cycle, not confirmed","PR after 1st cycle, not"
same,Response time and response,"[1]; Patient 5, Renal cell carcinoma, 250 mg QD 4/1, after 1st cycle, confirmed","PR after 1st cycle,"
same,Response time and response,"[1]; Patient 6, Alveolar soft tissue carcinoma, cycle 1 250 mg QD 4/1, cycle 2 and beyond 200 mg QD 4/1, not confirmed","PR, not confirmed"
same,Response time and response,"[1]; Patient 7, Renal cell carcinoma, 150 mg continuous, after 1st cycle, not confirmed","PR after 1st cycle, not"
same,Response time and response,"[1]; Patient 8, Thymoma, cycle 1 150 mg continuous, cycle 2 and beyond 100 mg continuous, not confirmed","PR, not confirmed."
same,patients showing complete response,[1]; among the 50 patients,1 patient
same,patients showing partial response,[1]; among the 50 patients,7 patients
same,partial responses confirmed by a repeat assessment four weeks later,[1]; of the seven patients with partial response,four
same,anti-tumor activity,[2],has anti-tumor activity
